# In paper PMC10987858 (Heliyon, 2024):
# Biological target: Bovine Serum Albumin (BSA) (Bos taurus, UniProt P02769)
# Assay: tryptophan fluorescence quenching titration
# Assay type: binding
# Conditions: 298 K; phosphate buffer, pH not given; 10 μM BSA stock; double-log
# Sequence of Bovine Serum Albumin (BSA) (P02769 25-607): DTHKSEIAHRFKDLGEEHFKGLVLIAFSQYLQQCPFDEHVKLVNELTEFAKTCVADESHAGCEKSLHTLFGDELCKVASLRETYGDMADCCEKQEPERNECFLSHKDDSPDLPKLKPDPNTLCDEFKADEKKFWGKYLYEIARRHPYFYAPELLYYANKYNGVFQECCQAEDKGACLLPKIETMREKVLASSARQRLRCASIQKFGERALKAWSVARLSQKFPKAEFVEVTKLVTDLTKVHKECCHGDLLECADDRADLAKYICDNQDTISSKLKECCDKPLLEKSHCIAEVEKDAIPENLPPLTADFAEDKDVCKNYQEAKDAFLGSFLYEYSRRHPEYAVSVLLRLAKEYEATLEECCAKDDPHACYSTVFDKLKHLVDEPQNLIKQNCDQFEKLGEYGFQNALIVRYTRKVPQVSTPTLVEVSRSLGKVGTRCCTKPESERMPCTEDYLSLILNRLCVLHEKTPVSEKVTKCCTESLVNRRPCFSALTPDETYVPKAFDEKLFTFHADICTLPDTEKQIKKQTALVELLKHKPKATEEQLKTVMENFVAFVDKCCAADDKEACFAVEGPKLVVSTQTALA
row,Kb,SMILES
1,2.47e+06 M⁻¹,"CC=NNC(=O)Cc1ccccc1 [EPAH, N′-ethylidene-2-phenylacetohydrazide]"
2,44500 M⁻¹,"O=C(Cc1ccccc1)NN=Cc1ccco1 [FMPAH, N’-(furan-2-ylmethylene)-2-phenylacetohydrazide]"
3,683000 M⁻¹,"O=C(Cc1ccccc1)NN=Cc1ccccc1O [HBPAH, N'-(2-hydroxybenzylidene)-2-phenylacetohydrazide]"
4,1.75e+08 M⁻¹,"O=C(Cc1ccccc1)N/N=C/C=C/c1ccccc1 [PPAH, 2-Phenyl-N'-(3-phenylallylidene)acetohydrazide]"
